{"source": "patent US6673781B1", "about": "“Tricyclic compounds having sPLA2-inhibitory activities” (Shionogi & Co., Ltd., priority 1999, dated 2004)", "key": {"[1]": {"biological_target": "T1, recombinant human secretory phospholipase A2 (Homo sapiens, UniProt P14555)", "T1 sequence (P14555 21-144)": "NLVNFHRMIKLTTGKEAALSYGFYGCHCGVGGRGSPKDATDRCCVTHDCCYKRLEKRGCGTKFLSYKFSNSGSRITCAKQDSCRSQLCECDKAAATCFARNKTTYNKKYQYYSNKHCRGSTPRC", "experiment": "Inhibition test of human secretory phospholipase A2 (chromogenic assay, 96 well microtiterplate)", "assay_type": "biochemical", "settings": "sPLA2 50 ng/well, 40° C., 30 minutes, OD 405 nm, substrate 1,2-bis(heptanoylthio)-1,2-dideoxy-sn-glycero-3-phospholylcholine", "source_text": "Inhibition Test of Human Secretory Phospholipase A2 Analytical Experiment\nIn order to identify and evaluate an inhibitor of recombinant human secretory phospholipase A2, the following chromogenic assay is utilized. The assay herein has been applied for high volume screening wherein 96 well microtiterplate is used. A general explanation for such assay is described in “Analysis of Human Synovial Fluid Phospholipase A2 on Short Chain Phosphatidylcholine-Mixed Micelles: Development of a Spectrophotometric Assay Suitable for a Micortiterplate Reader” (Analytical Biochemistry, 204, pp 190-197, 1992 by Laure. J. Reynolds. Lori L. Hughes and Edward A. Dennis: the disclosure of which is incorporated herein for reference.\nBovine Serum Albumin (fatty acid free) (1 g/L) (Sigma A-7030)\npH 7.5 (adjusted with NaOH)\npH 4.5 (adjusted with acetic acid)\n1 mg of sPLA2 is dissolved in 1 ml of an enzyme buffer. Thereafter, the solution is maintained at 4° C.\nIn the assay, 5 μl of the solution is diluted with 1995 μl of the reaction buffer to be used.\n198 mg of 5,5′-dithiobis-2-[…] (manufactured by Wako Pure Chemicals) is dissolved in 100 ml of H2O\n100 mg of racemic 1,2-bis(heptanoylthio)-1,2-dideoxy-sn-glycero-3-phospholylcholine is dissolved in 1 ml of chloroform.\n624.9 mg of Triton-X 100 is dissolved in 100 ml of the reaction buffer.\nEnzyme Reaction: for 1 plate of Microtiterplate\n1) 0.106 ml of the substrate solution is put in a centrifugal tube, and nitrogen gas is jetted to remove the solvent. 0.54 ml of Triton-X 100 is added thereto, the mixture is stirred, thereafter it is sonified in a bath type sonification to dissolve. To the resulting product are added 17.8 ml of the reaction buffer and 0.46 ml of DTNB, and 0.18 ml each of the admixture is poured to wells of the 96 well microtiterplate.\n2) 10 μl of a test compound (or solvent blank) are added in accordance with alignment of plates which has been previously set.\n3) Incubation is effected at 40° C. for 15 minutes.\n4) 20 μl of an enzyme solution (sPLA2) which has been previously diluted (50 ng/well) are added to start reaction (40° C., 30 minutes).\n5) Changes in absorbancy for 30 minutes are measured by a plate reader, and inhibition activity was calculated (OD: 405 nm).\n6) IC50 was determined by plotting log concentration with respect to inhibition values within 10% to 90% inhibiting range."}}}
{"smiles": "NC(=O)C1=CCCc2c1c1c(OCC(=O)O)cccn1c2Cc1ccccc1", "note": "[Compound I-2]", "values": [{"measurement": "IC50", "setting": "[1]", "value": 8, "unit": "nM"}]}
{"smiles": "NC(=O)C1CCCc2c1c1c(OCC(=O)O)cccn1c2Cc1ccccc1", "note": "(stereo not drawn) [Compound I-3]", "values": [{"measurement": "IC50", "setting": "[1]", "value": 21, "unit": "nM"}]}
{"smiles": "CCOC(=O)CCCOc1ccn2c(Cc3ccccc3)c3c(c2c1)C(C(N)=O)=CCC3", "note": "[Compound I-4]", "values": [{"measurement": "IC50", "setting": "[1]", "value": 175, "unit": "nM"}]}
{"smiles": "NC(=O)C1=CCCc2c1c1cc(OCCCC(=O)O)ccn1c2Cc1ccccc1", "note": "[Compound I-5]", "values": [{"measurement": "IC50", "setting": "[1]", "value": 49, "unit": "nM"}]}
{"smiles": "COC(=O)COc1cccn2c(Cc3ccccc3)c3c(c12)C(C(N)=O)OCCC3", "note": "(stereo not drawn) [Compound I-6]", "values": [{"measurement": "melting point", "value": "182 to 183", "unit": "°C"}, {"measurement": "IC50", "setting": "[1]", "value": 7500, "unit": "nM"}]}
{"smiles": "NC(=O)C1OCCCc2c1c1c(OCC(=O)O)cccn1c2Cc1ccccc1", "note": "(stereo not drawn) [Compound I-7]", "values": [{"measurement": "melting point", "value": "175 to 179", "unit": "°C"}, {"measurement": "IC50", "setting": "[1]", "value": 269, "unit": "nM"}]}
{"smiles": "COC(=O)COc1cccn2c(Cc3ccccc3)c3c(c12)C(C(N)=O)=NCC3", "note": "[Compound I-8]", "values": [{"measurement": "IC50", "setting": "[1]", "value": 21100, "unit": "nM"}]}
{"smiles": "NC(=O)C1=NCCc2c1c1c(OCC(=O)O)cccn1c2Cc1ccccc1", "note": "[Compound I-9]", "values": [{"measurement": "melting point", "value": "196 to 198", "unit": "°C"}, {"measurement": "IC50", "setting": "[1]", "value": 1590, "unit": "nM"}]}
{"smiles": "NC(=O)c1nncc2c(Cc3ccccc3)n3cccc(OCC(=O)O)c3c12", "note": "[Compound I-10]", "values": [{"measurement": "IC50", "setting": "[1]", "value": 39900, "unit": "nM"}]}
{"smiles": "NC(=O)C1=NOCc2c1c1c(OCC(=O)O)cccn1c2Cc1ccccc1", "note": "[Compound I-11]", "values": [{"measurement": "IC50", "setting": "[1]", "value": 31, "unit": "nM"}]}
{"smiles": "COC(=O)COc1cccn2c(Cc3ccc(-c4ccccc4)cc3)c3c(c12)C(C(N)=O)=CCC3", "note": "[Compound I-12]", "values": [{"measurement": "melting point", "value": "196 to 198", "unit": "°C"}, {"measurement": "IC50", "setting": "[1]", "value": 125, "unit": "nM"}]}
{"smiles": "NC(=O)C1=CCCc2c1c1c(OCC(=O)O)cccn1c2Cc1ccc(-c2ccccc2)cc1", "note": "[Compound I-13]", "values": [{"measurement": "melting point", "value": "224 to 227", "unit": "°C"}, {"measurement": "IC50", "setting": "[1]", "value": 10, "unit": "nM"}]}
{"smiles": "COC(=O)COc1cccn2c(Cc3ccccc3)c3c(c12)C(C(N)=O)OCC3", "note": "(stereo not drawn) [Compound I-14]", "values": [{"measurement": "melting point", "value": "218 to 220", "unit": "°C"}, {"measurement": "IC50", "setting": "[1]", "value": 725, "unit": "nM"}]}
{"smiles": "NC(=O)C1OCCc2c1c1c(OCC(=O)O)cccn1c2Cc1ccccc1", "note": "(stereo not drawn) [Compound I-15]", "values": [{"measurement": "melting point", "value": "242 to 243 °C (dec.)"}, {"measurement": "IC50", "setting": "[1]", "value": 35, "unit": "nM"}]}
